According to paper PMC10221074, “Functional Profiling of the A-Family of Venom Peptides from the Wolf Spider Lycosa shansia” (Toxins, 2023):

Legend:
[1] = tested on: Pseudomonas aeruginosa DSM 1117; test: Antibacterial growth assay (OD600); conditions: for Bacterial growth relative to medium, P. aeruginosa (1117), replicate 1 / Bacterial growth relative to medium, P. aeruginosa (1117), replicate 2 / Bacterial growth relative to medium, P. aeruginosa (1117), replicate 3: OD600, medium = 100, MH II broth; for Bacterial growth relative to medium, P. aeruginosa (1117), replicate 1: replicate column 1; for Bacterial growth relative to medium, P. aeruginosa (1117), replicate 2: replicate column 2; for Bacterial growth relative to medium, P. aeruginosa (1117), replicate 3: replicate column 3
[2] = tested on: Pseudomonas aeruginosa DSM 50071; test: Antibacterial growth assay (OD600); conditions: OD600, medium = 100, MH II broth; for Bacterial growth relative to medium, P. aeruginosa (50071), replicate 1: replicate column 1; for Bacterial growth relative to medium, P. aeruginosa (50071), replicate 2: replicate column 2; for Bacterial growth relative to medium, P. aeruginosa (50071), replicate 3: replicate column 3
Method: (§1) Cryo-conserved cultures of selected bacterial strains (Table 4) were transferred to Tryptic Soy Agar (TSA) plates (Carl Roth) with a sterile inoculation loop, sealed with Parafilm (BEMIS, Neenah, WI, USA), and incubated for 1–2 days at 37 °C depending on growth. Single colonies were picked and transferred into 2–3 mL of the Mueller–Hinton II (MH II) broth (BD, Heidelberg, Germany). The bacteria were cultivated overnight, subcultured on fresh medium and grown for 3–4 h before testing at 37 °C, with shaking at 180 rpm. We measured the optical density at 600 nm (OD600) of 1 mL of the bacterial suspensions in polystyrene cuvettes (SARSTED, Nümbrecht, Germany) using an Ultrospec 10 spectrophotometer (Biochrome, Cambridge, UK). We then diluted them with the MH II medium to the preferred OD600 (Table 2). The peptides were dissolved in DMSO to generate 10 mmol/L stocks and diluted with the MH II medium to 200 µM before the assay. We used 10 µg/mL (~40 µg/mL for S. epidermidis) gentamicin and colistin (Sigma-Aldrich, Taufkirchen, Germany), DMSO and the medium only as controls. The bacteria were transferred to 96-multiwell plates with a final volume of 100 µL per well (50 µL bacterial suspension, and 50 µL test peptide). The OD600 was measured at 0, 24 and 48 h using a BioTek Eon microplate reader followed by analysis with Gen5 v2.09.

[3] = tested on: Micrococcus luteus DSM 20030; test: Antibacterial growth assay (OD600); conditions: OD600, medium = 100, MH II broth; for Bacterial growth relative to medium, M. luteus, replicate 1: replicate column 1; for Bacterial growth relative to medium, M. luteus, replicate 2: replicate column 2; for Bacterial growth relative to medium, M. luteus, replicate 3: replicate column 3
Method: as §1

[4] = tested on: Staphylococcus aureus DSM 2569; test: Antibacterial growth assay (OD600); conditions: OD600, medium = 100, MH II broth; for Bacterial growth relative to medium, S. aureus, replicate 1: replicate column 1; for Bacterial growth relative to medium, S. aureus, replicate 2: replicate column 2; for Bacterial growth relative to medium, S. aureus, replicate 3: replicate column 3
Method: as §1

[5] = tested on: Escherichia coli BL21(DE3); test: Antibacterial growth assay (OD600); conditions: OD600, medium = 100, MH II broth; for Bacterial growth relative to medium, E. coli, replicate 1: replicate column 1; for Bacterial growth relative to medium, E. coli, replicate 2: replicate column 2; for Bacterial growth relative to medium, E. coli, replicate 3: replicate column 3
Method: as §1

[6] = tested on: Listeria monocytogenes DSM 20600; test: Antibacterial growth assay (OD600); conditions: for Bacterial growth relative to medium, L. monocytogenes, replicate 1 / Bacterial growth relative to medium, L. monocytogenes, replicate 2 / Bacterial growth relative to medium, L. monocytogenes, replicate 3: OD600, medium = 100, MH II broth; for Bacterial growth relative to medium, L. monocytogenes, replicate 1: replicate column 1; for Bacterial growth relative to medium, L. monocytogenes, replicate 2: replicate column 2; for Bacterial growth relative to medium, L. monocytogenes, replicate 3: replicate column 3
[7] = tested on: Staphylococcus epidermidis DSM 28319; test: Antibacterial growth assay (OD600); conditions: for Bacterial growth relative to medium, S. epidermidis, replicate 1: replicate column 1; for Bacterial growth relative to medium, S. epidermidis, replicate 2: replicate column 2; for Bacterial growth relative to medium, S. epidermidis, replicate 3: replicate column 3
[8] = tested on: B/Malaysia/2506/2004 (B-Mal); type: cell-based, influenza virus
[9] = tested on: A/Hamburg/05/2009 (H1N1); type: cell-based, influenza virus
[10] = tested on: A/Hessen/1/2003 (H3N2); type: cell-based, influenza virus
[11] = tested on: panel of seven bacterial strains; test: Antibacterial growth assay (OD600), statements on the whole panel; type: cell-based; conditions: growth after 48 h
[12] = antibiotic control, table line says 10µg/mL (methods: ~40 µg/mL for S. epidermidis), OD600, medium = 100
[13] = 37 °C, peptide 200 µM mixed 50 µL + 50 µL with bacteria, Figure 7: 48 h
[14] = OD600, medium = 100, MH II broth, 37 °C, peptide 200 µM mixed 50 µL + 50 µL with bacteria, Figure 7: 48 h

## CNC(C)C1CCC(N)C(OC2C(N)CC(N)C(OC3OCC(C)(O)C(NC)C3O)C2O)O1 (centres unmarked) [Genta, gentamicin, reference compound]
[1]; antibiotic control 10µg/mL
  Bacterial growth relative to medium, P. aeruginosa (1117), replicate 1: 7.251
  Bacterial growth relative to medium, P. aeruginosa (1117), replicate 2: 12.1419
  Bacterial growth relative to medium, P. aeruginosa (1117), replicate 3: 0.7836
[2]; antibiotic control 10µg/mL
  Bacterial growth relative to medium, P. aeruginosa (50071), replicate 1: 10.9397
  Bacterial growth relative to medium, P. aeruginosa (50071), replicate 2: 9.403
  Bacterial growth relative to medium, P. aeruginosa (50071), replicate 3: 6.959
[3]; antibiotic control 10µg/mL
  Bacterial growth relative to medium, M. luteus, replicate 1: 34.7531
  Bacterial growth relative to medium, M. luteus, replicate 2: 33.0988
  Bacterial growth relative to medium, M. luteus, replicate 3: 25.6914
[4]; antibiotic control 10µg/mL
  Bacterial growth relative to medium, S. aureus, replicate 1: 10.1302
  Bacterial growth relative to medium, S. aureus, replicate 2: 22.1938
  Bacterial growth relative to medium, S. aureus, replicate 3: 8.389
[5]; antibiotic control 10µg/mL
  Bacterial growth relative to medium, E. coli, replicate 1: 15.2669
  Bacterial growth relative to medium, E. coli, replicate 2: 26.3127
  Bacterial growth relative to medium, E. coli, replicate 3: 7.573
[6]; antibiotic control 10µg/mL
  Bacterial growth relative to medium, L. monocytogenes, replicate 1: 41.2443
  Bacterial growth relative to medium, L. monocytogenes, replicate 2: 32.6505
  Bacterial growth relative to medium, L. monocytogenes, replicate 3: 13.0219
[7]; [12]
  Bacterial growth relative to medium, S. epidermidis, replicate 1: 41.1615
  Bacterial growth relative to medium, S. epidermidis, replicate 2: 36.2191
  Bacterial growth relative to medium, S. epidermidis, replicate 3: 58.2561

## SLFGLLDLVKNKVGQTGLL [LS-AMP-A2]
[8]
  Viability of infected cells relative to aprotinin, Replicate 1: 0.03127
  Viability of infected cells relative to aprotinin, Replicate 2: 0.04494
  Viability of infected cells relative to aprotinin, Replicate 3: 0.06464
[9]
  Viability of infected cells relative to aprotinin, Replicate 1: 0.06714
  Viability of infected cells relative to aprotinin, Replicate 2: 0.03978
  Viability of infected cells relative to aprotinin, Replicate 3: 0.06798
[9]; […], replicate 4 (additional internal control)
  Viability of infected cells relative to aprotinin, Replicate 4: 0.02665
[9]; […], replicate 5 (additional internal control)
  Viability of infected cells relative to aprotinin, Replicate 5: 0.03333
[10]
  Viability of infected cells relative to aprotinin, Replicate 1: 0.05065
  Viability of infected cells relative to aprotinin, Replicate 2: 0.0432
  Viability of infected cells relative to aprotinin, Replicate 3: 0.03436
[11]
  Antibacterial activity over the panel (in words): limited activity
[1]; [13]
  Bacterial growth relative to medium, P. aeruginosa (1117), replicate 1: 64.5445
  Bacterial growth relative to medium, P. aeruginosa (1117), replicate 2: 72.5374
  Bacterial growth relative to medium, P. aeruginosa (1117), replicate 3: 62.225
[1]; P. aeruginosa DSM 1117, growth after 48 h
  Antibacterial activity (in words): less effective
[2]; [13]
  Bacterial growth relative to medium, P. aeruginosa (50071), replicate 1: 100.368
  Bacterial growth relative to medium, P. aeruginosa (50071), replicate 2: 113.753
  Bacterial growth relative to medium, P. aeruginosa (50071), replicate 3: 87.799
[3]; [13]
  Bacterial growth relative to medium, M. luteus, replicate 1: 118.679
  Bacterial growth relative to medium, M. luteus, replicate 2: 181.194
  Bacterial growth relative to medium, M. luteus, replicate 3: 65.5667
[4]; [13]
  Bacterial growth relative to medium, S. aureus, replicate 1: 88.0937
  Bacterial growth relative to medium, S. aureus, replicate 2: 87.9986
  Bacterial growth relative to medium, S. aureus, replicate 3: 104.003
[5]; [13]
  Bacterial growth relative to medium, E. coli, replicate 1: 128.192
  Bacterial growth relative to medium, E. coli, replicate 2: 150.174
  Bacterial growth relative to medium, E. coli, replicate 3: 124.918
[6]; L. monocytogenes DSM 20600, growth after 48 h
  Antibacterial activity (in words): less effective
[6]; [13]
  Bacterial growth relative to medium, L. monocytogenes, replicate 1: 66.982
  Bacterial growth relative to medium, L. monocytogenes, replicate 2: 116.711
  Bacterial growth relative to medium, L. monocytogenes, replicate 3: 86.9442
[7]; [14]
  Bacterial growth relative to medium, S. epidermidis, replicate 1: 112.577
  Bacterial growth relative to medium, S. epidermidis, replicate 2: 143.959
  Bacterial growth relative to medium, S. epidermidis, replicate 3: 90.9149
